Source: patent US8815249B2 (priority 1999, dated 2014)
Entries after “also recorded” stand apart in the source; their conditions may differ. Non-standard residues stand in square brackets, D forms with d. Ava = NCCCCC(=O)O

Key:
[1] = test system: PGCC(95-104) epitope peptide; design: species or system C3H/HeJ mice; conditions: mouse, in vivo
[2] = test system: total splenic cells from DR4-IE Tg mice; assay: IFN-γ ELISPOT recall response, total splenic cells, Ii-Key/gp100 hybrids; type: in vivo; conditions: specificity control
From the text: Immunizations. DR4-IE Tg mice were immunized subcutaneously at the base of the tail with 40 nmole or 60 nmole of Ii-Key/gp100 MHC class II hybrid or epitope-only peptides, dissolved in saline and emulsified with an equal volume of either IFA or CFA. The synthetic phosphorothioate-modified CpG ODN 1826, 5′ TCC […] CTG ACGTT 3′ (SEQ ID NO.: 906) immunostimulatory nucleotide (CpG motif underlined) was purchased from Oligos Etc. (Wilsonville, Oreg.). DR4-IE Tg mice were vaccinated s.c. with 60 nmole of designated immunogen in an emulsion with IFA and 60 μg CpG. […]
ELISPOT assays. […] Digitalized images of spots were analyzed with a Series 1 Immunospot Analyzer and Immunospot 1.7e software (Cellular Technology Limited, Cleveland, Ohio). Criteria for spot size, circularity and color density were determined by comparing control and experimental wells. […] Only areas meeting the specified criteria were counted as spots. Mean and standard deviations were calculated for all assays. […]
Structure-activity rules identified in study. The stimulation of splenic mononuclear lymphocytes from HLA-DR4-IE Tg mice immunized with, respectively, with each of the peptides of Table 1.2 with complete Freund's adjuvant (CFA), was determined in an ELISPOT assay for IFN-γ, IL-4 and IL-2. […]

[3] = test system: tumor cells expressing CEA; conditions: cited from earlier work
[4] = test system: HLA alleles of the A2 supertype (A2.2, A2.3, A2.6 and A6802); conditions: cited from earlier work
[5] = test system: purified splenic CD4+ Th cells; design: species or system DR4-IE Tg mice; conditions: mouse, in vivo, sc

## Ac-LRMK-ava-IAYLKQATAK-NH2 (Ac-LRMK[Ava]IAYLKQATAK-NH2; SMILES CC[C@H](C)[C@H](NC(=O)CCCCNC(=O)[C@H](CCCCN)NC(=O)[C@H](CCSC)NC(=O)[C@H](CCCNC(=N)N)NC(=O)[C@H](CC(C)C)NC(C)=O)C(=O)N[C@@H](C)C(=O)N[C@@H](Cc1ccc(O)cc1)C(=O)N[C@@H](CC(C)C)C(=O)N[C@@H](CCCCN)C(=O)N[C@@H](CCC(N)=O)C(=O)N[C@@H](C)C(=O)N[C@H](C(=O)N[C@@H](C)C(=O)N[C@@H](CCCCN)C(N)=O)[C@@H](C)O) [Ii-Key/PGCC]
[1]
  antibody titers against PGCC epitope: Significantly greater antibody titers

## GVGSPYVSRLLGICL [HER-2/neu (776-790) epitope]
[2]; immunization in CFA
  spots on in vitro stimulation with non-specific DR4 restricted epitope: Less than 10 spots/well
[2]; b664 CFA, b669 CpG in IFA
  spots on stimulation with non-specific HLA-DR4-restricted epitope: non-significant immune response; also recorded: three to six spots

## LMTFWNPPV [9.5.2]
[3]
  CTL induction: induced vigorous anti-tumor CTL responses
[4]
  binding to HLA alleles of the A2 supertype: bound tightly

## RQLYPEWTEAQRL [Peptide A]
[5]
  IFN-γ spots: 491 spots
